Positions of bridges follow the written chain, without caps; N, C: chain ends. Non-standard residues stand in square brackets, D forms with d. Residues, ends and D or L forms follow the SMILES beside them. *: point of attachment. FITC = O=C1OC2(c3ccc(O)cc3Oc3cc(O)ccc32)c2ccc(NC(=S)*)cc21; S5 = C=CCCC[C@](C)(N)C(=O)O; AEEA = NCCOCCOCC(=O)O
How the values were obtained:
proteinase K = proteinase K (Parengyodontium album, UniProt P06873); test: Protease stability assay; assay type: in vitro ADME; details: proteinase K 10 μg·ml^−1, fluorescein-labeled peptide 50 μM, 10 mM Tris pH 8.0, 150 mM NaCl, room temperature, HPLC absorbance 210 nm, exponential decay fit
Experimental: Protease stability assays were performed in analogy to a previously published protocol ([47]). Stocks of fluorescein-labeled peptides were prepared to a concentration of 55.5 μM in assay buffer (10 mM Tris, pH 8.0, 150 mM NaCl) and separately stocks of proteinase K also in assay buffer (c = 100 μg·ml^−1). To begin each experiment, peptide and proteinase K stocks were mixed (final concentrations: c = 10 μg·ml^−1 proteinase K, c = 50 μM fluorescein-labeled peptide; final volume = 500 μl) and incubated at room temperature. At each time point, 50 μl of the reaction mixture was quenched by adding 100 μl of TFA/ACN/H2O (v/v/v, 1:49:49) and subsequently incubated for 2 min on ice. Following centrifugation (15 min, 13200 rpm, 4°C), samples (45 μl) were monitored by analytical HPLC using a linear gradient of 10–60% HPLC solvent B over 20 min. The amount of remaining peptide was quantified via absorbance at λ = 210 nm (intact peptide (%)) and plotted against time (t) (h). Half-life (t1/2) was calculated by fitting the data to an exponential decay using the software Prism 5.0 (GraphPad).

[1] = CD spectroscopy, secondary structure content; assay type: physicochemical; details: fluorescein-labeled peptide 75 μM, 10 mM sodium phosphate pH 7.4, CDNN/PEPFIT; for Helix (α-helicity): unbound
Experimental: Spectra of fluorescein-labeled peptides were recorded with a J-715 circular dichroism spectrometer (Jasco) using a stoppered quartz cuvette (1 mm; Hellma). Peptide samples (c = 75 μM) were prepared in buffer: 10 mM disodium hydrogen phosphate, pH 7.4. For each sample, 10 CD spectra were measured between λ = 190 and 260 nm with continuous scan mode (10 mdeg sensitivity, 1.0 nm resolution, 1.0 nm bandwidth, 2 s integration time, 50 nm/min scan rate). Obtained spectra were averaged, then subtracted from a reference buffer spectrum and smoothed using a fast Fourier transform filter (FFT filter). The mean residue ellipticity (Θ) (deg·cm^2·dmol^−1·10^4) was calculated using Formula (2) and plotted against wavelength (λ) (nm). The ratio of secondary structure elements was calculated with CDNN using the PEPFIT set of reference spectra for secondary structure determination ([45],[46]):(2) where [Θ]m = mean molar ellipticity per peptide bond (degree·cm^2·dmol^−1·10^4), Θ = measured ellipticity (degree), d = optical path length (cm), cg = mass concentration (g·l^−1), MRW = mean residue weight, M = molar mass of the peptide (g·mol^−1) and N = number of peptide bonds.

proteinase K, sequence (P06873 106-384): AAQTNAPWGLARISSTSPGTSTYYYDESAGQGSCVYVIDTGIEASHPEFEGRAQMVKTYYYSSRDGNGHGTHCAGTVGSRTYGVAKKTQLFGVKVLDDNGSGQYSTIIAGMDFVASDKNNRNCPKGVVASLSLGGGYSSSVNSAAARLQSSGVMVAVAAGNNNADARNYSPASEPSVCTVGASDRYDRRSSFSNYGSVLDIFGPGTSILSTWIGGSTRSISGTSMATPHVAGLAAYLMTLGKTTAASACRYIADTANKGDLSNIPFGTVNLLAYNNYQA

| SMILES | Half-life (t1/2) (proteinase K) [h] | Random coil [1] [%] | β-Sheet [1] [%] | β-Turn [1] [%] | Helix (α-helicity) [1] [%] |
| --- | --- | --- | --- | --- | --- |
| CC(C)C[C@H](NC(=O)[C@]1(C)CCCC=CCCC[C@](C)(NC(=O)[C@H](CCC(=O)O)NC(=O)[C@H](CO)NC(=O)[C@@H]2CCCN2C(=O)[C@H](CO)NC(=O)[C@H](CCCCN)NC(=O)[C@H](Cc2c[nH]cn2)NC(=O)CNC(=O)[C@H](CCCNC(=N)N)NC(=O)[C@H](CCC(=O)O)NC(=O)[C@H](CCCCN)NC(=O)[C@H](CCCNC(=N)N)NC(=O)[C@H](CC(N)=O)NC(=O)[C@]2(C)CCCC=CCCC[C@](C)(NC(=O)[C@H](CCCNC(=N)N)NC(=O)[C@H](CCC(N)=O)NC(=O)[C@H](C)NC(=O)[C@H](CCC(N)=O)NC(=O)[C@H](CCCCN)NC(=O)[C@H](CCCCN)NC(=O)COCCOCCNC(=S)Nc3ccc4c(c3)C(=O)OC43c4ccc(O)cc4Oc4cc(O)ccc43)C(=O)N[C@@H](CCCNC(=N)N)C(=O)N[C@@H](Cc3c[nH]cn3)C(=O)N[C@@H](CCCCN)C(=O)N2)C(=O)N[C@@H](CCCNC(=N)N)C(=O)N[C@@H](CCCNC(=N)N)C(=O)N[C@@H](CO)C(=O)N1)C(=O)N[C@@H](Cc1c[nH]c2ccccc12)C(=O)N[C@@H](Cc1c[nH]cn1)C(=O)N[C@@H](C)C(=O)N[C@@H](CCCNC(=N)N)C(N)=O [B2] ({FITC-AEEA}-KKQAQR[S5]RHK[S5]NRKERGHKSPSE[S5]RRS[S5]LWHAR-NH2; staple 7-11, 24-28) | 8.93 | 12.5 | 2.4 | 10.3 | 82.2 |
| CC(C)C[C@H](NC(=O)[C@H](CCCCN)NC(=O)[C@H](Cc1c[nH]cn1)NC(=O)[C@H](CCCNC(=N)N)NC(=O)[C@H](CCCCN)NC(=O)[C@H](CCCNC(=N)N)NC(=O)[C@H](CCC(N)=O)NC(=O)[C@H](C)NC(=O)[C@H](CCC(N)=O)NC(=O)[C@H](CCCCN)NC(=O)[C@H](CCCCN)NC(=O)COCCOCCNC(=S)Nc1ccc2c(c1)C(=O)OC21c2ccc(O)cc2Oc2cc(O)ccc21)C(=O)N[C@@H](CC(N)=O)C(=O)N[C@@H](CCCNC(=N)N)C(=O)N[C@@H](CCCCN)C(=O)N[C@@H](CCC(=O)O)C(=O)N[C@@H](CCCNC(=N)N)C(=O)NCC(=O)N[C@@H](Cc1c[nH]cn1)C(=O)N[C@@H](CCCCN)C(=O)N[C@@H](CO)C(=O)N1CCC[C@H]1C(=O)N[C@@H](CO)C(=O)N[C@@H](CCC(=O)O)C(=O)N[C@@]1(C)CCCC=CCCC[C@@](C)(C(=O)N[C@@H](CC(C)C)C(=O)N[C@@H](Cc2c[nH]c3ccccc23)C(=O)N[C@@H](Cc2c[nH]cn2)C(=O)N[C@@H](C)C(=O)N[C@@H](CCCNC(=N)N)C(N)=O)NC(=O)[C@H](CO)NC(=O)[C@H](CCCNC(=N)N)NC(=O)[C@H](CCCNC(=N)N)NC1=O [B] ({FITC-AEEA}-KKQAQRKRHKLNRKERGHKSPSE[S5]RRS[S5]LWHAR-NH2; staple 24-28) | 1.08 | 46.0 | 6.8 | 13.9 | 30.5 |
| CC(C)C[C@@H]1NC(=O)[C@@](C)(NC(=O)[C@H](CO)NC(=O)[C@H](CCCNC(=N)N)NC(=O)[C@H](CCCNC(=N)N)NC(=O)[C@H](CCC(N)=O)NC(=O)[C@H](CCC(=O)O)NC(=O)[C@H](CO)NC(=O)[C@@H]2CCCN2C(=O)[C@H](CO)NC(=O)[C@H](CCCCN)NC(=O)[C@H](Cc2c[nH]cn2)NC(=O)CNC(=O)[C@H](CCCNC(=N)N)NC(=O)[C@H](CCC(=O)O)NC(=O)[C@H](CCCCN)NC(=O)[C@H](CCCNC(=N)N)NC(=O)[C@H](CC(N)=O)NC(=O)[C@]2(C)CCCC=CCCC[C@](C)(NC(=O)[C@H](CCCNC(=N)N)NC(=O)[C@H](CCC(N)=O)NC(=O)[C@H](C)NC(=O)[C@H](CCC(N)=O)NC(=O)[C@H](CCCCN)NC(=O)[C@H](CCCCN)NC(=O)COCCOCCNC(=S)Nc3ccc4c(c3)C(=O)OC43c4ccc(O)cc4Oc4cc(O)ccc43)C(=O)N[C@@H](CCCNC(=N)N)C(=O)N[C@@H](Cc3c[nH]cn3)C(=O)N[C@@H](CCCCN)C(=O)N2)CCCC=CCCC[C@@](C)(C(=O)N[C@@H](CCCNC(=N)N)C(N)=O)NC(=O)[C@H](Cc2c[nH]cn2)NC(=O)[C@H](Cc2c[nH]c3ccccc23)NC1=O [C2] ({FITC-AEEA}-KKQAQR[S5]RHK[S5]NRKERGHKSPSEQRRS[S5]LWH[S5]R-NH2; staple 7-11, 28-32) | 7.33 | 41.6 | 3.3 | 4.2 | 61.8 |
| CC(C)C[C@@H]1NC(=O)[C@@](C)(NC(=O)[C@H](CO)NC(=O)[C@H](CCCNC(=N)N)NC(=O)[C@H](CCCNC(=N)N)NC(=O)[C@H](CCC(N)=O)NC(=O)[C@H](CCC(=O)O)NC(=O)[C@H](CO)NC(=O)[C@@H]2CCCN2C(=O)[C@H](CO)NC(=O)[C@H](CCCCN)NC(=O)[C@H](Cc2c[nH]cn2)NC(=O)CNC(=O)[C@H](CCCNC(=N)N)NC(=O)[C@]2(C)CCCC=CCCC[C@](C)(NC(=O)[C@H](CCCCN)NC(=O)[C@H](Cc3c[nH]cn3)NC(=O)[C@H](CCCNC(=N)N)NC(=O)[C@H](CCCCN)NC(=O)[C@H](CCCNC(=N)N)NC(=O)[C@H](CCC(N)=O)NC(=O)[C@H](C)NC(=O)[C@H](CCC(N)=O)NC(=O)[C@H](CCCCN)NC(=O)[C@H](CCCCN)NC(=O)COCCOCCNC(=S)Nc3ccc4c(c3)C(=O)OC43c4ccc(O)cc4Oc4cc(O)ccc43)C(=O)N[C@@H](CC(N)=O)C(=O)N[C@@H](CCCNC(=N)N)C(=O)N[C@@H](CCCCN)C(=O)N2)CCCC=CCCC[C@@](C)(C(=O)N[C@@H](CCCNC(=N)N)C(N)=O)NC(=O)[C@H](Cc2c[nH]cn2)NC(=O)[C@H](Cc2c[nH]c3ccccc23)NC1=O [C3] ({FITC-AEEA}-KKQAQRKRHK[S5]NRK[S5]RGHKSPSEQRRS[S5]LWH[S5]R-NH2; staple 11-15, 28-32) | 5.05 | 37.0 | 4.3 | 6.2 | 59.3 |
| CC(C)C[C@H](NC(=O)[C@H](CCCCN)NC(=O)[C@H](Cc1c[nH]cn1)NC(=O)[C@H](CCCNC(=N)N)NC(=O)[C@H](CCCCN)NC(=O)[C@H](CCCNC(=N)N)NC(=O)[C@H](CCC(N)=O)NC(=O)[C@H](C)NC(=O)[C@H](CCC(N)=O)NC(=O)[C@H](CCCCN)NC(=O)[C@H](CCCCN)NC(=O)COCCOCCNC(=S)Nc1ccc2c(c1)C(=O)OC21c2ccc(O)cc2Oc2cc(O)ccc21)C(=O)N[C@@H](CC(N)=O)C(=O)N[C@@H](CCCNC(=N)N)C(=O)N[C@@H](CCCCN)C(=O)N[C@@H](CCC(=O)O)C(=O)N[C@@H](CCCNC(=N)N)C(=O)NCC(=O)N[C@@H](Cc1c[nH]cn1)C(=O)N[C@@H](CCCCN)C(=O)N[C@@H](CO)C(=O)N1CCC[C@H]1C(=O)N[C@@H](CO)C(=O)N[C@@H](CCC(=O)O)C(=O)N[C@@H](CCC(N)=O)C(=O)N[C@@H](CCCNC(=N)N)C(=O)N[C@@H](CCCNC(=N)N)C(=O)N[C@@H](CO)C(=O)N[C@@]1(C)CCCC=CCCC[C@@](C)(C(=O)N[C@@H](CCCNC(=N)N)C(N)=O)NC(=O)[C@H](Cc2c[nH]cn2)NC(=O)[C@H](Cc2c[nH]c3ccccc23)NC(=O)[C@H](CC(C)C)NC1=O [C] ({FITC-AEEA}-KKQAQRKRHKLNRKERGHKSPSEQRRS[S5]LWH[S5]R-NH2; staple 28-32) | 1.3 | 63.6 | 2.8 | 7.6 | 28.4 |
